{"source": "patent US20180296532A1", "about": "“RNA-Focused Small Molecules for Inhibiting RNA Toxicity in Myotonic Dystrophy” (The Scripps Research Institute, priority 2015, published 2018)", "key": {"HSA^LR mice [1]": {"tested_on": "HSA^LR mice", "experiment": "Myotonia grade in HSA^LR mouse model of DM1", "assay_type": "in vivo", "conditions": "40 mg/kg/day; compared to untreated mice", "from_the_text": "(§1) A mouse model of DM1 has been reported in which 250 rCUG repeats are expressed using an actin promoter (human skeletal actin long repeat, HSA^LR).^24 The presence of these repeats results in dysregulation of alternative splicing in the muscle-specific chloride ion channel (Clcn1) and the sarcoplasmic/endoplasmic reticulum calcium ATPase 1 (Serca1/Atp2a1) pre-mRNAs. Clcn1 exon 7a is excluded ˜100% in mRNA from normal adult mice: DM1 mice have an exclusion rate of ˜50% (FIG. 12A)."}, "HSA^LR mice [2]": {"tested_on": "HSA^LR mice", "experiment": "Pre-mRNA splicing defects in HSA^LR mouse model of DM1", "assay_type": "in vivo", "conditions": "40 mg/kg/day intraperitoneally for 18 days", "from_the_text": "as §1\nAll experimental procedures, mouse handling, and husbandry were completed in accordance with the Association for Assessment and Accreditation of Laboratory Animal Care. A mouse model for DM1(67). HSALR in line 20b, was used. HSALR mice express human skeletal actin RNA with 250 CUG repeats in the 3′ UTR. Age- and gender-matched HSALR mice were injected intraperitoneally with either 40 mg/kg 2GN8 in water for treatment and 0.9% NaCl for control once per day for 18 days. Mice were sacrificed one day after the last injection, and the vastus muscle was obtained. RNA was extracted from the vastus tissue, and cDNA was synthesized as previously described."}, "[3]": {"tested_on": "C2C12 cell line expressing firefly luciferase mRNA with r(CUG)800 in the 3′ UTR", "experiment": "Luciferase reporter assay for DM1 translational defects in C2C12 cells", "assay_type": "cell-based", "from_the_text": "Exemplary Formula (I) compound 2GN8 was studied for improving translational defects associated with DM1 (due to poor nucleocytoplasmic transport of r(CUG)^exp containing transcripts).^(30, 52, 53) In particular, a cellular model system was employed in which the C2C12 cell line stably expresses r(CUG)800 embedded in the 3′ UTR of firefly luciferase.^(54) Similar to DMPK mRNA in DM1-affected cells, the expanded repeat impairs nucleocytoplasmic transport of luciferase mRNA and thus decreases luciferase expression. Compounds that bind r(CUG)^exp and disrupt the r(CUG)^exp-MBNL1 complex may stimulate cytoplasmic transport of the luciferase mRNA and thus translation of luciferase (FIG. 9A).\nC2C12 cell lines expressing 800 or 0 CTG repeats in the 3′ UTR of luciferase were grown as monolayers in 96-well plates in growth medium (1×DMEM, 10% FBS, 1× glutagro, (Corning) and 1× antibiotic/antimycotic (Corning))(66). Once the cells were 80% confluent, 2GN8 (300, 200 and 100 μM) was added in 100 μL of growth medium. Cells were treated for 48 h and then the cell count was normalized using WST-1 reagent (Roche). Then cells were washed with 1×DPBS and lysed by treating with 50 μL of PPBT lysis buffer at room temperature for 10 minutes. Then 50 μL of luciferase substrate was added and luminescence was measured."}, "r(CUG)12-MBNL1 complex": {"tested_on": "r(CUG)12-MBNL1 complex", "experiment": "TR-FRET assay, disruption of the r(CUG)12-MBNL1 complex", "assay_type": "biochemical", "from_the_text": "DM1 is caused by an RNA gain-of-function mechanism in which r(CUG)^exp binds and inactivates proteins involved RNA biogenesis.^(25-29) One protein, muscleblind-like 1 (MBNL1), regulates the alternative splicing of a sub-set of RNAs that are de-regulated in DM1.^(27, 43-45) We discovered that Formula (I) compounds disrupt the r(CUG)12-MBNL1 complex in vitro as determined by a previously described time-resolved fluorescence resonance energy transfer (TR-FRET) assay (FIG. 1A).^(46)\nThe in vitro activity of library compounds was assessed by disruption of the r(CUG)12-MBNL1 complex using a previously reported TR-FRET assay.^(32, 46) Biotinylated RNA was folded at 60° C. in 1× Folding Buffer (20 mM HEPES, pH 7.5, […], and 10 mM NaCl) and slowly cooled to room temperature. The buffer was then adjusted to 1× Assay Buffer (1× Folding Buffer supplemented with 2 mM MgCl2, 2 mM CaCl2, 5 mM DTT, 0.1% BSA, 0.05% Tween-20) and MBNL1-His6 was added. The final concentrations of RNA and MBNL1-His6 were 80 nM and 62 nM, respectively. After incubation at room temperature for 15 min, 8 μL aliquots were then dispensed into each well of low volume, 384-well plates using a flying reagent dispenser. […] Plates were incubated at room temperature for 1 h, and then TR-FRET was measured using a Molecular Devices SpectraMax M5 plate reader using an excitation wavelength of 345 nm and a 420 nm cutoff. Fluorescence was measured at 545 and 665 nm. Library compounds were screened for potential intrinsic fluorescence under screening conditions. No library compounds were fluorescent at 665 nm and two non-hit compounds have low fluorescence at 545 nm.\nTo calculate the percent inhibition of complex formation, the ratio of fluorescence intensity at 545 nm and 665 nm in the presence of compound was compared to the ratio in the absence of small molecule (100% r(CUG)12-MBNL1 complex formation) and in the absence of RNA and protein (no complex formation). […]"}}, "data": [{"smiles": "N=C(N)Nc1ccc2nc(-c3ccc(-c4nc5ccc(NC(=N)N)cc5[nH]4)cc3)[nH]c2c1", "note": "[Compound 2GN8]", "values": [{"measurement": "myotonia grade in quadriceps and gastrocnemius muscles", "setting": "HSA^LR mice [1]", "result": "improved myotonia grade"}, {"measurement": "Clcn1 pre-mRNA splicing defects", "setting": "HSA^LR mice [2]", "result": "improved to nearly wild type levels"}, {"measurement": "Serca1 pre-mRNA splicing defects", "setting": "HSA^LR mice [2]", "result": "improved to nearly wild type levels"}, {"measurement": "luciferase activity in cells without r(CUG)800", "setting": "[3]; C2C12 cells expressing firefly luciferase mRNA without r(CUG)800", "result": "does not affect luciferase activity"}, {"measurement": "luciferase activity (improvement of translational defect)", "setting": "[3]; C2C12 cells with r(CUG)800, 300 and 200 μM, 48 h", "result": "significant increase"}, {"measurement": "IC50", "setting": "r(CUG)12-MBNL1 complex", "result": "39 ± 4", "unit": "µM"}, {"measurement": "enhancement in potency of 2GN8 over precursor compound 27", "setting": "r(CUG)12-MBNL1 complex; ratio of TR-FRET IC50 values", "result": "roughly 14 fold"}]}]}
